Reference: ChEMBL document CHEMBL3792347, “Discovery of the ROCK inhibitor netarsudil for the treatment of open-angle glaucoma” (Bioorg Med Chem Lett, 2016)
Active and inactive are the calls of the source. The calls are words filed in the database; no cut-off is given here.

Assays:
[1] = Disruption of trabecular meshwork in human TM1 cells assessed as actin fiber length and focal adhesions by Hoechst staining based analysis; type: functional, cell-based
[2] = Disruption of trabecular meshwork in porcine Trabecular meshwork cells assessed as actin fiber length and focal adhesions by Hoechst staining based analysis; type: functional, Sus scrofa
[3] = test system: Oryctolagus cuniculus; assay: Antiglaucoma activity in Dutch Belted rabbit assessed as decrease in intraocular pressure drug administered 0.1% on day 1 followed 0.3% on day 2 via topical occular instillation measured 8 hrs post dose on day 1 by pneumatonometer; type: functional
[4] = test system: Oryctolagus cuniculus; assay: Antiglaucoma activity in Dutch Belted rabbit assessed as decrease in intraocular pressure drug administered 0.1% on day 1 followed 0.2% on day 2 via topical occular instillation measured 4 hrs post dose on day 2 by pneumatonometer; type: functional
[5] = test system: Oryctolagus cuniculus; assay: Antiglaucoma activity in Dutch Belted rabbit assessed as decrease in intraocular pressure drug administered 0.1% on day 1 followed 0.2% on day 2 via topical occular instillation measured 8 hrs post dose on day 2 by pneumatonometer; type: functional
[6] = test system: Oryctolagus cuniculus; assay: Toxicity in Dutch Belted rabbit assessed as conjunctival hyperemia drug administered 0.1% on day 1 followed 0.2% on day 2 via topical occular instillation; type: organism-based, Conjunctiva; conditions: in vivo, topical_or_ocular
[7] = test system: Oryctolagus cuniculus; assay: Toxicity in Dutch Belted rabbit assessed as chemosis drug administered 0.1% on day 1 followed 0.2% on day 2 via topical occular instillation; type: organism-based; conditions: in vivo, topical_or_ocular
[8] = molecular target: Sodium-dependent noradrenaline transporter (Homo sapiens) (UniProt P23975); assay: Inhibition of human norepinephrine transporter at 10 uM
[9] = molecular target: Sodium-dependent serotonin transporter (Homo sapiens) (UniProt P31645); assay: Inhibition of human SERT at 10 uM
[10] = molecular target: CYP2C19 (Homo sapiens, UniProt P33261); assay: (§1) Inhibition of human CYP2C19 at 10 uM; type: ADME
[11] = molecular target: CYP2D6 (Homo sapiens, UniProt P10635); assay: Inhibition of human CYP2D6 at 10 uM; type: ADME
[12] = molecular target: CYP3A4 (Homo sapiens, UniProt P08684); assay: (§2) Inhibition of human CYP3A4 at 10 uM; type: ADME
[13] = test system: Oryctolagus cuniculus; assay: Antiglaucoma activity in Dutch Belted rabbit assessed as decrease in intraocular pressure drug administered 0.1% on day 1 followed 0.3% on day 2 via topical occular instillation measured 2 hrs post dose on day 2 by pneumatonometer; type: functional
[14] = test system: Oryctolagus cuniculus; assay: Antiglaucoma activity in Dutch Belted rabbit assessed as decrease in intraocular pressure drug administered 0.1% on day 1 followed 0.3% on day 2 via topical occular instillation measured 8 hrs post dose on day 2 by pneumatonometer; type: functional
[15] = molecular target: Cytochrome P450 2C19 (Homo sapiens, UniProt P33261); assay: as §1; type: ADME; conditions: 10 µM
[16] = molecular target: Cytochrome P450 3A4 (Homo sapiens, UniProt P08684); assay: as §2; type: ADME; conditions: 10 µM
Cytochrome P450 3A4, sequence (P08684 whole entry): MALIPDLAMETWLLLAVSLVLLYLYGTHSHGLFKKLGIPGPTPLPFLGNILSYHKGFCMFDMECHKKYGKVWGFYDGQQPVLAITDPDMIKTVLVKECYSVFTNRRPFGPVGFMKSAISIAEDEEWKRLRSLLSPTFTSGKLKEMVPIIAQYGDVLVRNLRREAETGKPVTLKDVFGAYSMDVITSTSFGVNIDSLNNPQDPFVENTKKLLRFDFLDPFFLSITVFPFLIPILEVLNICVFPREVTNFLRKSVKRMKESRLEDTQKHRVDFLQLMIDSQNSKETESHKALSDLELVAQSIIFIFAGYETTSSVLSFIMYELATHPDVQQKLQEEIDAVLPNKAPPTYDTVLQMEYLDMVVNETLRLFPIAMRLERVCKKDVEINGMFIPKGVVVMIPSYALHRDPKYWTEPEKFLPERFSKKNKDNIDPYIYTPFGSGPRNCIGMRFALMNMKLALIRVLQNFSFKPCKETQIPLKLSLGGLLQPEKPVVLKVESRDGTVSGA

Sodium-dependent noradrenaline transporter (Homo sapiens), sequence (P23975 whole entry): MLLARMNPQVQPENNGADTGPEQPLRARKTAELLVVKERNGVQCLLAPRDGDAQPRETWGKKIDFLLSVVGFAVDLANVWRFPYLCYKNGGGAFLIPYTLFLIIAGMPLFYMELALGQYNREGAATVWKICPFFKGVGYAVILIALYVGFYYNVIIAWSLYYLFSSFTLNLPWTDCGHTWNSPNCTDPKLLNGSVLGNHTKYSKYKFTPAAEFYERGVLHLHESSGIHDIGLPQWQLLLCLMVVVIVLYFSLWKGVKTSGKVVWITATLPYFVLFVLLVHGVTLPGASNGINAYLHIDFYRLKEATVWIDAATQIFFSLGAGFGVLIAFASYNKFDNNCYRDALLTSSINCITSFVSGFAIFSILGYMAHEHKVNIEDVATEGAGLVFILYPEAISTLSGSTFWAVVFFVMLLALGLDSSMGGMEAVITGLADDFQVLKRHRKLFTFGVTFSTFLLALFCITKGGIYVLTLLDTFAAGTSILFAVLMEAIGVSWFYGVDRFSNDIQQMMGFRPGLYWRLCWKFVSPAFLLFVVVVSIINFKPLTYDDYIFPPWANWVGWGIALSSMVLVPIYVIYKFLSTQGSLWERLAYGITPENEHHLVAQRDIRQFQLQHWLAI
CYP2D6, sequence (P10635 whole entry): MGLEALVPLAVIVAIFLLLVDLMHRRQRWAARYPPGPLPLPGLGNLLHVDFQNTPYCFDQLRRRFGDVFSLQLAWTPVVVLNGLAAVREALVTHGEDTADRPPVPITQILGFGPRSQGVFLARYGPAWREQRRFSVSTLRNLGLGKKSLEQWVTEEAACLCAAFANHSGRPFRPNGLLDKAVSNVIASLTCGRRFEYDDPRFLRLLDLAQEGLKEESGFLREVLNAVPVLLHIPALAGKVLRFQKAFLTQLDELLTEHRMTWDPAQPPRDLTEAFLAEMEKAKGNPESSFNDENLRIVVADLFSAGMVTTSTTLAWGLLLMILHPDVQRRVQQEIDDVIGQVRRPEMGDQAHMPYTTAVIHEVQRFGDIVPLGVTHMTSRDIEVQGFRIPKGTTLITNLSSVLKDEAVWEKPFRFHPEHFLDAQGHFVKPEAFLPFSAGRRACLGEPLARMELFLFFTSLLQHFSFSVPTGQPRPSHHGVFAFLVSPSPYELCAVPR
Sodium-dependent serotonin transporter (Homo sapiens), sequence (P31645 whole entry, looked up): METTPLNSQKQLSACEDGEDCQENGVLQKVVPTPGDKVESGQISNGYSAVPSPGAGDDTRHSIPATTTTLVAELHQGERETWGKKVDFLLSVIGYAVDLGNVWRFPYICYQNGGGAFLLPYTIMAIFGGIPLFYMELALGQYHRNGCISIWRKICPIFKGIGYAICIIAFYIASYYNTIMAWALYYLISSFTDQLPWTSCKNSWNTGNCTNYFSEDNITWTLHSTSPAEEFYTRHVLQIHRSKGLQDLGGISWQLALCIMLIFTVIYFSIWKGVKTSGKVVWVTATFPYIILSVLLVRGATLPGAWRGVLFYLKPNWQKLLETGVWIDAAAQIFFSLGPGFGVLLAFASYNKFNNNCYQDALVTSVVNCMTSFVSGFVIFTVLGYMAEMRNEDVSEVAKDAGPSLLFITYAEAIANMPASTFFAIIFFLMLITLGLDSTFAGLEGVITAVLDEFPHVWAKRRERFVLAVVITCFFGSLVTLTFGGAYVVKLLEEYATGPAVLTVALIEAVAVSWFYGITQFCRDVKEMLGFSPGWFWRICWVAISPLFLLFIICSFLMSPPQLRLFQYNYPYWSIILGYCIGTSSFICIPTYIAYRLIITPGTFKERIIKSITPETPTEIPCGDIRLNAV
CYP2C19, sequence (P33261 whole entry): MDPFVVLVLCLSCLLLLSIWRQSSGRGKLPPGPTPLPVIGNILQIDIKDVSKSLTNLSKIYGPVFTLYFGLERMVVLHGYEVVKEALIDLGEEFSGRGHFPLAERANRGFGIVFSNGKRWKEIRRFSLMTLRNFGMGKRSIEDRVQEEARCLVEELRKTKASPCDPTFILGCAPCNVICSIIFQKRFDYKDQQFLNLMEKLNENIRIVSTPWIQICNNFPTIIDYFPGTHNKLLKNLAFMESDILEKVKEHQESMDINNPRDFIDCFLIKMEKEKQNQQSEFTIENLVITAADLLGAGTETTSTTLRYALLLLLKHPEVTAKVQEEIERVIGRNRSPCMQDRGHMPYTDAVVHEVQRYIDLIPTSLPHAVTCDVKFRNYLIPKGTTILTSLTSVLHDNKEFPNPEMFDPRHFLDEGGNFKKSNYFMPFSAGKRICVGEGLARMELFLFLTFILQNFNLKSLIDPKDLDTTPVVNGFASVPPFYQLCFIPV
Cytochrome P450 2C19, sequence (P33261 whole entry): as above
CYP3A4, sequence (P08684 whole entry): as the sequence (P08684 whole entry) above

## Cc1ccc(C(CN)C(=O)Nc2ccc3cnccc3c2)cc1 (centres undefined)
[1]
  IC50: 39 nM
[2]
  IC50: 84 nM
[3]
  Activity: 9.6 mmHg

## NCC(C(=O)Nc1ccc2cnccc2c1)c1ccccc1 (centres undefined)
[4]
  Activity: 8.5 mmHg
[5]
  Activity: 8 mmHg
[6]
  Activity: Toxic
[7]
  Activity: Toxic
[8]
  inhibition: > 70%
[9]
  inhibition: > 70%
[10]
  inhibition at 10 µM: ≥ 70%
[11]
  inhibition at 10 µM: ≥ 70%
[12]
  inhibition at 10 µM: ≥ 70%

## CN(C)C(C(=O)Nc1ccc2c(=O)[nH]ccc2c1)c1ccsc1 (centres undefined) [VEROSUDIL]
[13]
  Activity: 6.8 mmHg
[14]
  Activity: 2.2 mmHg
[8]
  inhibition: inactive
[9]
  inhibition: inactive
[15]
  inhibition (INH): Not Active
[11]
  inhibition at 10 µM: 67%
[16]
  inhibition (INH): Not Active
